{"source": "patent US4493828A", "about": "“Use of thyrotropin releasing hormone and related peptides as poultry growth promotants” (Merck & Co., Inc., priority 1982, dated 1985)", "key": {"[1]": {"tested_on": "4-week-old Hubbard x Hubbard cockerels", "assay": "Example 1: effect of TRH on growth in 4-week-old male chicks (17 days)", "type": "in vivo, chicken", "settings": "for body weight gain as compared with control (in words): P 0.01", "method": "Four-week-old Hubbard x Hubbard cockerels were used in this experiment, and average initial weights were 841.75 g. Synthetic TRH (Beckman Co., Calif.) was dissolved in saline and given daily by intravenous injection via the brachial vein at 0.1 μg/bird, 1.0 μg/bird, and 10.0 μg/bird. Birds were weighed and feed consumption was measured at 2 times a week for 21/2 weeks. Data were analyzed by least squares analyses of variance, using initial weight as a covariant."}, "[2]": {"tested_on": "4-week-old Hubbard×Hubbard cockerels", "assay": "Example 2: effect of TRH on growth in 4-week-old male chicks (25 days)", "type": "in vivo, chicken", "method": "Four-week-old Hubbard×Hubbard cockerels were used in this experiment, and average weight was 831.38 g. Synthetic TRH (Beckman Co., CA) was dissolved in saline and given daily by intravenous injection via the brachial vein at 0.1 μg/bird, 1.0 μg/bird, and 10 μg/ bird. Birds were weighed twice a week for 4 weeks. Data were analyzed by least squares of variance, using initial weight as a covariant."}, "[3]": {"settings": "0.1 μg/bird daily intravenous, day 3 after start of treatment"}, "[4]": {"settings": "0.1 μg/bird daily intravenous, day 7 after start of treatment"}, "[5]": {"settings": "0.1 μg/bird daily intravenous, day 10 after start of treatment"}, "[6]": {"settings": "0.1 μg/bird daily intravenous, day 14 after start of treatment"}, "[7]": {"settings": "0.1 μg/bird daily intravenous, day 17 after start of treatment"}, "[8]": {"settings": "1.0 μg/bird daily intravenous, day 3 after start of treatment"}, "[9]": {"settings": "1.0 μg/bird daily intravenous, day 7 after start of treatment"}, "[10]": {"settings": "1.0 μg/bird daily intravenous, day 10 after start of treatment"}, "[11]": {"settings": "1.0 μg/bird daily intravenous, day 14 after start of treatment"}, "[12]": {"settings": "1.0 μg/bird daily intravenous, day 14 after start of treatment, P < 0.01"}, "[13]": {"settings": "1.0 μg/bird daily intravenous, day 17 after start of treatment, P < 0.01"}, "[14]": {"settings": "1.0 μg/bird/day, 14 and 17 days after the start of treatment"}, "[15]": {"settings": "10 μg/bird daily intravenous, day 3 after start of treatment"}, "[16]": {"settings": "10 μg/bird daily intravenous, day 7 after start of treatment"}, "[17]": {"settings": "10 μg/bird daily intravenous, day 10 after start of treatment"}, "[18]": {"settings": "10 μg/bird daily intravenous, day 14 after start of treatment"}, "[19]": {"settings": "10 μg/bird daily intravenous, day 14 after start of treatment, P < 0.01"}, "[20]": {"settings": "10 μg/bird daily intravenous, day 17 after start of treatment, P < 0.01"}, "[21]": {"settings": "10 μg/bird/day, 14 and 17 days after the start of treatment"}, "[22]": {"settings": "1.0 μg/bird/day, 22 (p 0.05) and 25 (p 0.025) days after the start of treatment"}, "[23]": {"settings": "TRH (high) 10 μg/bird daily intravenous, day 4 after start of treatment"}, "[24]": {"settings": "TRH (high) 10 μg/bird daily intravenous, day 8 after start of treatment"}}, "data": [{"smiles": "NC(=O)[C@@H]1CCCN1C(=O)[C@H](Cc1c[nH]cn1)NC(=O)[C@@H]1CCC(=O)N1", "note": "[TRH, Glp--His--Pro--NH2]", "values": [{"measurement": "body weight gain", "setting": "[1]; [3]", "value": "171.7 ± 9.8", "unit": "g"}, {"measurement": "body weight gain, percent increased as compared with control", "setting": "[1]; [3]", "value": "+0.6%"}, {"measurement": "body weight, least squares mean ± SEM corrected by initial weight", "setting": "[1]; [3]", "value": "1009.3 ± 9.7", "unit": "g"}, {"measurement": "body weight, percent increased as compared with control", "setting": "[1]; [3]", "value": "+0.1%"}, {"measurement": "body weight gain", "setting": "[1]; [4]", "value": "393.1 ± 14.7", "unit": "g"}, {"measurement": "body weight gain, percent increased as compared with control", "setting": "[1]; [4]", "value": "+5.0%"}, {"measurement": "body weight, least squares mean ± SEM corrected by initial weight", "setting": "[1]; [4]", "value": "1230.6 ± 14.7", "unit": "g"}, {"measurement": "body weight, percent increased as compared with control", "setting": "[1]; [4]", "value": "+1.5%"}, {"measurement": "body weight gain", "setting": "[1]; [5]", "value": "569.4 ± 19.7", "unit": "g"}, {"measurement": "body weight gain, percent increased as compared with control", "setting": "[1]; [5]", "value": "+5.5%"}, {"measurement": "body weight, least squares mean ± SEM corrected by initial weight", "setting": "[1]; [5]", "value": "1406.9 ± 19.7", "unit": "g"}, {"measurement": "body weight, percent increased as compared with control", "setting": "[1]; [5]", "value": "+2.2%"}, {"measurement": "body weight gain", "setting": "[1]; [6]", "value": "824.3 ± 24.9", "unit": "g"}, {"measurement": "body weight gain, percent increased as compared with control", "setting": "[1]; [6]", "value": "+8.9%"}, {"measurement": "body weight, least squares mean ± SEM corrected by initial weight", "setting": "[1]; [6]", "value": "1662.1 ± 24.8", "unit": "g"}, {"measurement": "body weight, percent increased as compared with control", "setting": "[1]; [6]", "value": "+4.0%"}, {"measurement": "body weight gain", "setting": "[1]; [7]", "value": "999.5 ± 27.8", "unit": "g"}, {"measurement": "body weight gain, percent increased as compared with control", "setting": "[1]; [7]", "value": "+7.5%"}, {"measurement": "body weight, least squares mean ± SEM corrected by initial weight", "setting": "[1]; [7]", "value": "1837.1 ± 27.8", "unit": "g"}, {"measurement": "body weight, percent increased as compared with control", "setting": "[1]; [7]", "value": "+3.9%"}, {"measurement": "body weight compared with birds receiving saline injections (in words)", "setting": "[1]; 0.1 μg/bird/day", "value": "slight increase in the body weight"}, {"measurement": "body weight gain", "setting": "[1]; [8]", "value": "174.2 ± 9.7", "unit": "g"}, {"measurement": "body weight gain, percent increased as compared with control", "setting": "[1]; [8]", "value": "+2.1%"}, {"measurement": "body weight, least squares mean ± SEM corrected by initial weight", "setting": "[1]; [8]", "value": "1011.8 ± 9.7", "unit": "g"}, {"measurement": "body weight, percent increased as compared with control", "setting": "[1]; [8]", "value": "+0.3%"}, {"measurement": "body weight gain", "setting": "[1]; [9]", "value": "409.2 ± 14.6", "unit": "g"}, {"measurement": "body weight gain, percent increased as compared with control", "setting": "[1]; [9]", "value": "+9.3%"}, {"measurement": "body weight, least squares mean ± SEM corrected by initial weight", "setting": "[1]; [9]", "value": "1246.7 ± 14.6", "unit": "g"}, {"measurement": "body weight, percent increased as compared with control", "setting": "[1]; [9]", "value": "+2.9%"}, {"measurement": "body weight gain", "setting": "[1]; [10]", "value": "582.9 ± 19.6", "unit": "g"}, {"measurement": "body weight gain, percent increased as compared with control", "setting": "[1]; [10]", "value": "+8.0%"}, {"measurement": "body weight, least squares mean ± SEM corrected by initial weight", "setting": "[1]; [10]", "value": "1420.5 ± 19.6", "unit": "g"}, {"measurement": "body weight, percent increased as compared with control", "setting": "[1]; [10]", "value": "+3.2%"}, {"measurement": "body weight gain, percent increased as compared with control", "setting": "[1]; [11]", "value": "+13.1%"}, {"measurement": "body weight, percent increased as compared with control", "setting": "[1]; [11]", "value": "+6.0%"}, {"measurement": "body weight gain", "setting": "[1]; [12]", "value": "856.2 ± 24.8", "unit": "g"}, {"measurement": "body weight, least squares mean ± SEM corrected by initial weight", "setting": "[1]; [12]", "value": "1693.7 ± 24.6", "unit": "g"}, {"measurement": "body weight, percent increased as compared with control", "setting": "[1]; 1.0 μg/bird daily intravenous, day 17 after start of treatment", "value": "+6.3%"}, {"measurement": "body weight gain, percent increased as compared with control", "setting": "[1]; 1.0 μg/bird daily intravenous, day 17 after start of treatment (end of experiment)", "value": 12.0, "unit": "%"}, {"measurement": "body weight gain", "setting": "[1]; [13]", "value": "1041.2 ± 27.6", "unit": "g"}, {"measurement": "body weight, least squares mean ± SEM corrected by initial weight", "setting": "[1]; [13]", "value": "1878.8 ± 27.6", "unit": "g"}, {"measurement": "body weight compared with birds receiving saline injections (in words)", "setting": "[1]; [14]", "value": "increased body weight significantly"}, {"measurement": "body weight gain as compared with control (in words)", "setting": "[1]; [14]", "value": "significant increase"}, {"measurement": "body weight gain", "setting": "[1]; [15]", "value": "181.6 ± 8.7", "unit": "g"}, {"measurement": "body weight gain, percent increased as compared with control", "setting": "[1]; [15]", "value": "+6.4%"}, {"measurement": "body weight, least squares mean ± SEM corrected by initial weight", "setting": "[1]; [15]", "value": "1019.2 ± 8.7", "unit": "g"}, {"measurement": "body weight, percent increased as compared with control", "setting": "[1]; [15]", "value": "+1.1%"}, {"measurement": "body weight gain", "setting": "[1]; [16]", "value": "399.3 ± 13.1", "unit": "g"}, {"measurement": "body weight gain, percent increased as compared with control", "setting": "[1]; [16]", "value": "+6.7%"}, {"measurement": "body weight, least squares mean ± SEM corrected by initial weight", "setting": "[1]; [16]", "value": "1236.9 ± 13.1", "unit": "g"}, {"measurement": "body weight, percent increased as compared with control", "setting": "[1]; [16]", "value": "+2.1%"}, {"measurement": "body weight gain", "setting": "[1]; [17]", "value": "584.0 ± 7.6", "unit": "g"}, {"measurement": "body weight gain, percent increased as compared with control", "setting": "[1]; [17]", "value": "+8.2%"}, {"measurement": "body weight, least squares mean ± SEM corrected by initial weight", "setting": "[1]; [17]", "value": "1421.6 ± 17.6", "unit": "g"}, {"measurement": "body weight, percent increased as compared with control", "setting": "[1]; [17]", "value": "+3.2%"}, {"measurement": "body weight gain, percent increased as compared with control", "setting": "[1]; [18]", "value": "+12.7%"}, {"measurement": "body weight, percent increased as compared with control", "setting": "[1]; [18]", "value": "+5.8%"}, {"measurement": "body weight gain", "setting": "[1]; [19]", "value": "853.3 ± 22.2", "unit": "g"}, {"measurement": "body weight, least squares mean ± SEM corrected by initial weight", "setting": "[1]; [19]", "value": "1690.8 ± 22.0", "unit": "g"}, {"measurement": "body weight, percent increased as compared with control", "setting": "[1]; 10 μg/bird daily intravenous, day 17 after start of treatment", "value": "+6.5%"}, {"measurement": "body weight gain", "setting": "[1]; [20]", "value": "1044.9 ± 24.7", "unit": "g"}, {"measurement": "body weight, least squares mean ± SEM corrected by initial weight", "setting": "[1]; [20]", "value": "1882.5 ± 24.7", "unit": "g"}, {"measurement": "body weight compared with birds receiving saline injections (in words)", "setting": "[1]; [21]", "value": "increased body weight significantly"}, {"measurement": "body weight gain as compared with control (in words)", "setting": "[1]; [21]", "value": "significant increase"}, {"measurement": "body weight compared with birds receiving saline injections (in words)", "setting": "[2]; 0.1 μg/bird/day", "value": "slight increase in body weight"}, {"measurement": "body weight compared with birds receiving saline injections (in words)", "setting": "[2]; [22]", "value": "significant increase in body weight"}, {"measurement": "body weight gain as compared with control birds (in words)", "setting": "[2]; [22]", "value": "significant increase"}, {"measurement": "body weight compared with birds receiving saline injections (in words)", "setting": "[2]; 10 μg/bird/day", "value": "slight increase in body weight"}, {"measurement": "body weight gain as compared with control birds (in words)", "setting": "[2]; 10 μg/bird/day, throughout the whole experiment", "value": "slight increase in body weight gain"}, {"measurement": "body weight gain", "setting": "[2]; [23]", "value": "156.3 ± 8.4", "unit": "g"}, {"measurement": "body weight gain, percent increase as compared with control", "setting": "[2]; [23]", "value": 4.6, "unit": "%"}, {"measurement": "body weight, least squares mean ± standard error of the mean corrected by initial weight", "setting": "[2]; [23]", "value": "997.7 ± 8.3", "unit": "g"}, {"measurement": "body weight, percent increased as compared with control", "setting": "[2]; [23]", "value": 0.7, "unit": "%"}, {"measurement": "body weight gain", "setting": "[2]; [24]", "value": "377.9 ± 15.1", "unit": "g"}, {"measurement": "body weight gain, percent increase as compared with control", "setting": "[2]; [24]", "value": 0, "unit": "%"}, {"measurement": "body weight, least squares mean ± standard error of the mean corrected by initial weight", "setting": "[2]; [24]", "value": "1219.1 ± 15.0", "unit": "g"}]}]}
